# Test results as given in patent US12351581B2, “Compounds for FGFR inhibition” (Cogent Biosciences, Inc., priority 2023, dated 2025).
# Read-outs that look alike come from different tables or passages of the source.
# Key:
# FGFR2 N549H = molecular target: T1, FGFR2 N549H (Homo sapiens, UniProt P21802, N549H); assay: FGFR mutant enzyme assay (HTRF KinEASE-TK); format: biochemical; conditions: ATP 0.9 uM
# T1 construct: biochemical assays using purified intracellular domains of the respective isoforms; purchased Carna Bioscience 08-532
# T1 sequence (P21802 399-821 N549H limits assumed): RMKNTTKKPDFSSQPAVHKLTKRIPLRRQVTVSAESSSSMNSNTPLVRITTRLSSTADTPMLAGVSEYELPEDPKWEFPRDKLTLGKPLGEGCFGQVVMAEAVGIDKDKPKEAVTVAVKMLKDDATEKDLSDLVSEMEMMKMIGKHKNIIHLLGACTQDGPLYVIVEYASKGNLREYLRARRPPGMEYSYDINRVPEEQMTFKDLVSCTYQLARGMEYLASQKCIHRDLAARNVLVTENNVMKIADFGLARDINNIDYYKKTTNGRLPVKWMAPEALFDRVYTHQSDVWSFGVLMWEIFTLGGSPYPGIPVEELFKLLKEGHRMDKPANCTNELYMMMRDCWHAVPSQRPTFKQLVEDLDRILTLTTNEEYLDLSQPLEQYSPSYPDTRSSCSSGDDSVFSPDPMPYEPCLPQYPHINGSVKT
# Description: (§1) Activity against FGFR wild type and mutant enzymes were determined in biochemical assays using purified intracellular domains of the respective isoforms using HTRF KinEASE-TK assay technology from CisBio, now PerkinElmer. (Catalogue number 62TK0PEC). Briefly test compounds were tested in 11 point 1:3 serial dilutions, typical final concentration range from 10,000 nM to 0.17 nM. Test compounds were dissolved in DMSO and added to assay plates using acoustic transfer. Enzyme was pre-incubated with test compound for 30 minutes and the assay was initiated by addition of ATP and TK-peptide substrate. After 60 minutes at room temperature the reaction was quenched with detection reagent and incubated for an additional 60 minutes at room temperature. The plates were read using a multimode reader and the emission ratio of 665 nm to 615 nm was determined. This ratio was converted to percent of control (POC). [1-(high control-sample signal)/(high control-low control)]*100. Wells without compound were used to determine high control values and wells without enzyme were used to determine low control values. The POC values were fit using a four-parameter logistic model and the value where the fit curve was equal to 50 POC was reported as the IC50 using the Signals Vitro Vivo software package (PerkinElmer). Final assay conditions were: 50 mM HEPES pH7.5, 10 mM MgCl2, 1 mM EDTA, 0.01% Brij-35, 2 mM MnCl2, 1 mM DTT, and 0.5 uM TK-peptide. The enzyme source, catalogue number, final enzyme concentration, and final ATP concentration can be found in the tables 1-2 below.
# FGFR2 V564F = molecular target: T2, FGFR2 V564F (Homo sapiens, UniProt P21802, V564F); assay: FGFR mutant enzyme assay (HTRF KinEASE-TK); format: biochemical; conditions: ATP 1.5 uM
# T2 construct: biochemical assays using purified intracellular domains of the respective isoforms; purchased SignalChem Biotech F05-12FG
# T2 sequence (P21802 399-821 V564F limits assumed): as the sequence (P21802 399-821 N549H limits assumed) above, with H151N, V166F counted along it
# Description: as §1
# FGFR2 V564I = molecular target: T3, FGFR2 V564I (Homo sapiens, UniProt P21802, V564I); assay: FGFR mutant enzyme assay (HTRF KinEASE-TK); format: biochemical; conditions: ATP 0.4 uM
# T3 construct: biochemical assays using purified intracellular domains of the respective isoforms; purchased Carna Bioscience 08-546
# T3 sequence (P21802 399-821 V564I limits assumed): as the sequence (P21802 399-821 N549H limits assumed) above, with H151N, V166I counted along it
# Description: as §1
# FGFR2-WT = FGFR2-WT (Homo sapiens, UniProt P21802); assay: Phosphorylated FGFR2-WT (pFGFR2-WT) cell assay, KATOIII cells; format: cell-based; conditions: 1 hour incubation, phospho FGFR2 HTRF
# FGFR2-WT, sequence (P21802 430-767 limits assumed): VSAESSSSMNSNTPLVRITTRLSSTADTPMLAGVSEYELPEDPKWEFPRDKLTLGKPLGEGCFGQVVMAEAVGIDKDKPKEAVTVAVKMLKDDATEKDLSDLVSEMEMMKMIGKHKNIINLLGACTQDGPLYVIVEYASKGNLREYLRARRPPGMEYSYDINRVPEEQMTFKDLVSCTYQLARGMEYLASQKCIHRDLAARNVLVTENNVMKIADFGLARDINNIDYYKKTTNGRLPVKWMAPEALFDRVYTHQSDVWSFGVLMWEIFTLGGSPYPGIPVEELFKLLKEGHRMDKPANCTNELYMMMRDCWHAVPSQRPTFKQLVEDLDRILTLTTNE
# Description: KATOIII cells were grown in the appropriate growth medium, IMDM supplemented with 20% fetal bovine serum. Cells were seeded into a 384-well at 1×10^5 cells/25 μL/well. Cells were treated with compound using three-fold serial dilutions at final concentrations ranging from 10 μM to 0.5 nM. Compound was incubated on cells for 1 hour at 37° C., 5% CO2.
# Following the 1-hour incubation with compounds, cell lysates were prepared and phospho FGFR2 was measured using the HTRF Phospho-FGFR2 (TYR653/654) Detection Kits (CisBio, cat #64FGFR2Y6PEG). 8 μL of cell lysis buffer (4×) supplied with 1× Phospho and Total protein blocking reagent (CisBio, cat #64FGFR2Y6PEG, CisBio, cat #64KB1AAC) was then added to the wells. Cells were incubated with lysis buffer for 40 minutes at 4° C. under shaking conditions. Plates were centrifuged at 1500 rpm for 3 min and then 16 μL of cell lysate was transferred from the cell-culture plate to a small volume detection plate with the added premixed antibody solutions (4 μL) (CisBio, cat #64FGFR2Y6PEG). Plates were centrifuged at 1000 rpm for 1 min then incubated at 25° C. for 120 min, then overnight at 4° C. Plates were read on the En Vision multimode plate reader via HTRF dual wavelength detection. One hundred percent of control (POC) was determined using DMSO treated samples, and 0 POC was determined using the top concentration of a control compound. A 4-parameter logistic curve was fit to the POC values as a function of compound concentration to determine the IC50 value.
# FGFR2 = molecular target: T4, FGFR2 (Homo sapiens, UniProt P21802); assay: FGFR wild type enzyme assay (HTRF KinEASE-TK); format: biochemical; conditions: ATP 2 uM
# T4 construct: biochemical assays using purified intracellular domains of the respective isoforms; purchased Carna Bioscience 08-134
# T4 sequence (P21802 399-821 limits assumed): as the sequence (P21802 399-821 N549H limits assumed) above, with H151N counted along it
# Description: as §1
# [1] = compound table after the examples, read-out: Enz FGFR2
IC50 (FGFR2 N549H) [nM],IC50 (FGFR2 V564F) [nM],IC50 (FGFR2 V564I) [nM],IC50 (FGFR2-WT) [nM],"IC50 (FGFR2; Table 3, read-out: FGFR2 Enz) [nM]",IC50 (FGFR2; [1]) [nM],SMILES
0.4,1,1.4,3.4,0.3,0.3,"Cc1c(-c2cc(O[C@H](C)c3ccc(F)cn3)c3c(C#N)cnn3c2)cnn1[C@H]1CC[C@H](O)CC1 [Compound 1, 4-[(1R)-1-(5-fluoro-2-pyridyl)ethoxy]-6-[1-(4-hydroxycyclohexyl)-5-methyl-pyrazol-4-yl]pyrazolo[1,5-a]pyridine-3-carbonitrile]"
0.05,0.14,0.24,2.5,0.16,0.16,"C[C@@H](Oc1cc(-c2cnn(C3CCNCC3)c2)cn2ncc(C#N)c12)c1ccccn1 [Compound 2, (R)-6-(1-(piperidin-4-yl)-1H-pyrazol-4-yl)-4-(1-(pyridin-2-yl)ethoxy)pyrazolo[1,5-a]pyridine-3-carbonitrile]"
–,–,–,128,21,21,"C[C@H](Oc1cc(-c2cnn(C3CCNCC3)c2)cn2ncc(C#N)c12)c1ccccn1 [Compound 3, (S)-6-(1-(piperidin-4-yl)-1H-pyrazol-4-yl)-4-(1-(pyridin-2-yl)ethoxy)pyrazolo[1,5-a]pyridine-3-carbonitrile]"
2,3,4,26,1,1,"Cc1nn(C2CCNCC2)c(C)c1-c1cc(O[C@H](C)c2ccccn2)c2c(C#N)cnn2c1 [Compound 4, (R)-6-(3,5-dimethyl-1-(piperidin-4-yl)-1H-pyrazol-4-yl)-4-(1-(pyridin-2-yl)ethoxy)pyrazolo[1,5-a]pyridine-3-carbonitrile]"
0.7,1,1.4,5,0.25,0.25,"Cc1c(-c2cc(O[C@H](C)c3ccccn3)c3c(C#N)cnn3c2)cnn1C1CCNCC1 [Compound 5, (R)-6-(5-methyl-1-(piperidin-4-yl)-1H-pyrazol-4-yl)-4-(1-(pyridin-2-yl)ethoxy)pyrazolo[1,5-a]pyridine-3-carbonitrile]"
2.4,4,4.3,15,1,1,"Cc1nn(C2CCN(C)CC2)c(C)c1-c1cc(O[C@H](C)c2ccccn2)c2c(C#N)cnn2c1 [Compound 6, (R)-6-(3,5-dimethyl-1-(1-methylpiperidin-4-yl)-1H-pyrazol-4-yl)-4-(1-(pyridin-2-yl)ethoxy)pyrazolo[1,5-a]pyridine-3-carbonitrile]"
0.5,1,1,6,0.3,0.3,"Cc1c(-c2cc(O[C@H](C)c3ccccn3)c3c(C#N)cnn3c2)cnn1C1CCN(C)CC1 [Compound 7, (R)-6-(5-methyl-1-(1-methylpiperidin-4-yl)-1H-pyrazol-4-yl)-4-(1-(pyridin-2-yl)ethoxy)pyrazolo[1,5-a]pyridine-3-carbonitrile]"
0.05,0.08,0.1,2,0.2,0.2,"C[C@@H](Oc1cc(-c2cnn(C3CCNCC3)c2)cn2ncc(C#N)c12)c1ncccc1F [Compound 8, (R)-4-(1-(3-fluoropyridin-2-yl)ethoxy)-6-(1-(piperidin-4-yl)-1H-pyrazol-4-yl)pyrazolo[1,5-a]pyridine-3-carbonitrile]"
0.5,1,1,7,0.3,0.3,"Cc1c(-c2cc(O[C@H](C)c3ncccc3F)c3c(C#N)cnn3c2)cnn1C1CCNCC1 [Compound 9, (R)-4-(1-(3-fluoropyridin-2-yl)ethoxy)-6-(5-methyl-1-(piperidin-4-yl)-1H-pyrazol-4-yl)pyrazolo[1,5-a]pyridine-3-carbonitrile]"
0.55,0.8,1,5,0.3,0.3,"Cc1c(-c2cc(O[C@H](C)c3ncccc3F)c3c(C#N)cnn3c2)cnn1[C@H]1CCCNC1 [Compound 10, 4-((R)-1-(3-fluoropyridin-2-yl)ethoxy)-6-(5-methyl-1-((S)-piperidin-3-yl)-1H-pyrazol-4-yl)pyrazolo[1,5-a]pyridine-3-carbonitrile]"
4.6,4.4,5.8,23,1.4,0.5,"Cc1nn([C@H]2CCCNC2)c(C)c1-c1cc(O[C@H](C)c2ncccc2F)c2c(C#N)cnn2c1 [Compound 11, 6-(3,5-dimethyl-1-((S)-piperidin-3-yl)-1H-pyrazol-4-yl)-4-((R)-1-(3-fluoropyridin-2-yl)ethoxy)pyrazolo[1,5-a]pyridine-3-carbonitrile]"
0.7,1.3,1.8,4.7,0.45,0.5,"Cc1c(-c2cc(O[C@H](C)c3ccc(F)cn3)c3c(C#N)cnn3c2)cnn1[C@H]1CCCNC1 [Compound 12, 4-((R)-1-(5-fluoropyridin-2-yl)ethoxy)-6-(5-methyl-1-((S)-piperidin-3-yl)-1H-pyrazol-4-yl)pyrazolo[1,5-a]pyridine-3-carbonitrile]"
0.6,1.6,2,3.8,0.5,0.6,"CC(=O)N1CCC[C@H](n2ncc(-c3cc(O[C@H](C)c4ccc(F)cn4)c4c(C#N)cnn4c3)c2C)C1 [Compound 13, 6-(1-((S)-1-acetylpiperidin-3-yl)-5-methyl-1H-pyrazol-4-yl)-4-((R)-1-(5-fluoropyridin-2-yl)ethoxy)pyrazolo[1,5-a]pyridine-3-carbonitrile]"
14,15,38,267,12.5,12.5,"Cc1c(-c2cc(O[C@H](C)c3ccc(Cl)cn3)c3c(C#N)cnn3c2)cnn1[C@H]1CCCNC1 [Compound 14, 4-((R)-1-(5-chloropyridin-2-yl)ethoxy)-6-(5-methyl-1-((S)-piperidin-3-yl)-1H-pyrazol-4-yl)pyrazolo[1,5-a]pyridine-3-carbonitrile]"
0.3,0.8,1,8,0.5,0.5,"C[C@@H]1CN(c2ccc(-c3cc(O[C@H](C)c4ccc(F)cn4)c4c(C#N)cnn4c3)cn2)C[C@H](C)O1 [Compound 16, 6-(6-((2S,6R)-2,6-dimethylmorpholino)pyridin-3-yl)-4-((R)-1-(5-fluoropyridin-2-yl)ethoxy)pyrazolo[1,5-a]pyridine-3-carbonitrile]"
0.5,1,1.7,3.4,0.6,0.6,"Cc1c(-c2cc(O[C@H](C)c3ccc(F)cn3)c3c(C#N)cnn3c2)cnn1[C@H]1CCCN(C(=O)C(C)(C)O)C1 [Compound 17, 4-((R)-1-(5-fluoropyridin-2-yl)ethoxy)-6-(1-((S)-1-(2-hydroxy-2-methylpropanoyl)piperidin-3-yl)-5-methyl-1H-pyrazol-4-yl)pyrazolo[1,5-a]pyridine-3-carbonitrile]"
